# No end group written: not given here.
# Columns and labels:
# Type in all cases: cell-based
# [1] = system: RNAIII transcription of various S. aureus strains
# [2] = system: agr transcription of S. aureus RN6390B
# [3] = system: RNAIII transcription of S. aureus RN6607
# [4] = system: RNAIII transcription of S. aureus RN8463
Substance,S. aureus strains tested in which the agr response is inhibited [1],Effect of purified peptide on RNAIII transcription [2],Effect of purified peptide on RNAIII transcription [3],Effect of purified peptide on RNAIII transcription [4]
DICNAYF [S. lugdunensis pheromone],5 of 6,,,
"GVNACSSLF [peptide from RN6607, peptide purified from supernatant of strain with cloned agrBD genes of RN6607]",,inhibitor effect,activator effect,inhibitor effect
"YINCDFLL [peptide from RN8463, peptide purified from supernatant of strain with cloned agrBD genes of RN8463]",,inhibitor effect,inhibitor effect,activator effect
YSTCDFIM [activator peptide],,activator effect,inhibitor effect,inhibitor effect
